# Tests used:
# [1] = test system: 30H12 monoclonal antibody; assay: Competitive binding to PSA-NCAM expressing cells (30H12); set-up: dose or concentration left out as unconfirmed
# Protocol: FIGS. 12B, 12C and 12D: competitive binding to PSA-NCAM expressing cells. B: pre-incubation of p65 (1 mM) or p66 (1 mM) with MenB anti-PSA antibody. C: 30H12 anti-PSA antibody without peptide. […]
# (§1) The specificity of p65 and p66 peptides was tested in a competition assay using anti-PSA antibodies and PSA-NCAM expressing cells. […] The binding specificity was examined in greater detail by testing peptide recognition by another anti-PSA mononclonal antibody (MenB). […] Thus, p65 and p66 mimotopes appear to be specific for a unique (idiotypic) determinant.
# MenB anti-PSA antibody = assay: Competitive binding to PSA-NCAM expressing cells (MenB)
# Protocol: FIGS. 12B, 12C and 12D: competitive binding to PSA-NCAM expressing cells. B: pre-incubation of p65 (1 mM) or p66 (1 mM) with MenB anti-PSA antibody. C: 30H12 anti-PSA antibody without peptide. D: pre-incubation of p65 (1 mM) or p66 (1 mM) with 30H12 anti-PSA antibody.
# as §1
# mAb 735 = assay: Competitive ELISA of biotinylated peptide-BSA conjugates on anti-PSA mAb; format: binding; details: for Binding of peptide to mAb 735 in competitive ELISA (percentage of binding): biotinylated peptide-BSA conjugate
# Excerpt: • mAb 735 and 30H12 • MaxiSorp™ plates (NUNC) for coating the antibody: ELISA plates • microtiter plates (NUNC) for peptide dilution: dilution plates • Biotinylated peptide-BSA conjugates prepared as above described • Extravidin alkaline phosphatase-avidin conjugate (SIGMA E2636) • p-nitrophenyl-phosphatase alkaline substrate (SIGMA 104-105) 2.1.2) Buffers • PBS pH 7.4 • Blocking solution: 0.5% BSA in PBS • TBS • TBST: TBS containing 0.05% Tween 20 • Extravidin alkaline phosphatase-avidin conjugate solution: 1/5000 in TBST • Alkaline phosphatase substrate solution; 1 tablet in 5 ml 50 mM NaHCO3, 1 mM MgCl2 solution, […]) Method
# Maxisorp™ plate wells were coated with 100 μl mAb solution (25 μg/ml) for 2 h at room temperature. The control wells of the ELISA plates were only coated with the blocking solution. In parallel, the peptide-BSA conjugate dilution plates were blocked with 200 μl blocking solution for 2 h. The antibody coated wells and the control wells were blocked with 200 μl blocking solution for 1 h. In parallel the peptide-BSA conjugate dilution plates were washed 6 times with TBST and 120 μl TBST was added to the wells. An appropriate volume of peptide-BSA conjugate solution was added to the first well and the volume adjusted to 140 μl with TBST. The peptide-BSA conjugate in well one was diluted in the ratio 1/7 by taking 20 μl out of the first well and transferring into the second also to achieve the total volume of 140 μl. This was repeated for the remaining wells. The peptide-BSA conjugate dilutions for the control wells were done the same way. The blocked ELISA plates were washed 6 times with TBST and the peptide-BSA conjugate dilutions or 100 μl of the mixed competitor solution was added to the wells. After incubation for 1 h, the wells were washed 10 times with TBST and 100 μl of the alkaline phosphatase substrate solution was added to the wells. The plates were read out after 10 to 60 min using a microplate reader at 405 nm.
# The specificity of peptide p21 (SEQ ID NO: 1) was investigated in a competition ELISA using biotinylated p21-BSA conjugate and a randomized variant of p21 (p22) conjugate as a control. The results presented in Tables X and XI are expressed as percentage of binding by comparison with peptide p21 at the highest concentration (9.45 10^-5 M) which corresponds to 100% binding.
# [2] = peptide-BSA conjugate, in words
sequence,measurement,setting,value
CSSVTAWTTGCG [p65],Binding of 30H12 monoclonal antibody to PSA-NCAM expressing cells after pre-incubation with peptide,[1],prevented its binding
same,Recognition of PSA-NCAM by MenB after pre-incubation with peptide,MenB anti-PSA antibody; FIG. 12C,did not prevent recognition of PSA-NCAM
same,Antibody specificity of peptide binding (30H12 versus MenB),MenB anti-PSA antibody; in words,bind only to 30H12
DSPLVPFIDFHP [p21],Binding of peptide to mAb 735 in competitive ELISA (percentage of binding),"mAb 735; peptide 1.62 10^−9 M, + chondroitin sulfate C",50 ± 1%
same,Binding of peptide to mAb 735 in competitive ELISA (percentage of binding),"mAb 735; peptide 1.62 10^−9 M, + colominic acid 1 mM",0 ± 1%
same,Binding of peptide to mAb 735 in competitive ELISA (percentage of binding),"mAb 735; peptide 1.62 10^−9 M, no competitor",56 ± 4%
same,Binding of peptide to mAb 735 in competitive ELISA (percentage of binding),"mAb 735; peptide 1.67 10^−5 M, + chondroitin sulfate C",99 ± 4%
same,Binding of peptide to mAb 735 in competitive ELISA (percentage of binding),"mAb 735; peptide 1.67 10^−5 M, + colominic acid 1 mM",34 ± 3%
same,Binding of peptide to mAb 735 in competitive ELISA (percentage of binding),"mAb 735; peptide 1.67 10^−5 M, no competitor",93 ± 10%
same,Binding of peptide to mAb 735 in competitive ELISA (percentage of binding),"mAb 735; peptide 2.86 10^−9 M, + chondroitin sulfate C",11 ± 2%
same,Binding of peptide to mAb 735 in competitive ELISA (percentage of binding),"mAb 735; peptide 2.86 10^−9 M, + colominic acid 1 mM",0 ± 0%
same,Binding of peptide to mAb 735 in competitive ELISA (percentage of binding),"mAb 735; peptide 2.86 10^−9 M, no competitor",13 ± 1%
same,Binding of peptide to mAb 735 in competitive ELISA (percentage of binding),"mAb 735; peptide 2.94 10^−6 M, + chondroitin sulfate C",99 ± 8%
same,Binding of peptide to mAb 735 in competitive ELISA (percentage of binding),"mAb 735; peptide 2.94 10^−6 M, + colominic acid 1 mM",23 ± 1%
same,Binding of peptide to mAb 735 in competitive ELISA (percentage of binding),"mAb 735; peptide 2.94 10^−6 M, no competitor",95 ± 1%
same,Binding of peptide to mAb 735 in competitive ELISA (percentage of binding),"mAb 735; peptide 5.04 10^−10 M, + chondroitin sulfate C",3 ± 0%
same,Binding of peptide to mAb 735 in competitive ELISA (percentage of binding),"mAb 735; peptide 5.04 10^−10 M, + colominic acid 1 mM",0 ± 0%
same,Binding of peptide to mAb 735 in competitive ELISA (percentage of binding),"mAb 735; peptide 5.04 10^−10 M, no competitor",2 ± 0%
same,Binding of peptide to mAb 735 in competitive ELISA (percentage of binding),"mAb 735; peptide 5.20 10^−7 M, + chondroitin sulfate C",94 ± 7%
same,Binding of peptide to mAb 735 in competitive ELISA (percentage of binding),"mAb 735; peptide 5.20 10^−7 M, + colominic acid 1 mM",15 ± 3%
same,Binding of peptide to mAb 735 in competitive ELISA (percentage of binding),"mAb 735; peptide 5.20 10^−7 M, no competitor",91 ± 2%
same,Binding of peptide to mAb 735 in competitive ELISA (percentage of binding),"mAb 735; peptide 8.89 10^−11 M, + chondroitin sulfate C",2 ± 0%
same,Binding of peptide to mAb 735 in competitive ELISA (percentage of binding),"mAb 735; peptide 8.89 10^−11 M, + colominic acid 1 mM",0 ± 0%
same,Binding of peptide to mAb 735 in competitive ELISA (percentage of binding),"mAb 735; peptide 8.89 10^−11 M, no competitor",0 ± 0%
same,Binding of peptide to mAb 735 in competitive ELISA (percentage of binding),"mAb 735; peptide 9.27 10^−8 M, + chondroitin sulfate C",92 ± 2%
same,Binding of peptide to mAb 735 in competitive ELISA (percentage of binding),"mAb 735; peptide 9.27 10^−8 M, + colominic acid 1 mM",5 ± 2%
same,Binding of peptide to mAb 735 in competitive ELISA (percentage of binding),"mAb 735; peptide 9.27 10^−8 M, no competitor",93 ± 9%
same,Binding of peptide to mAb 735 in competitive ELISA (percentage of binding),"mAb 735; peptide 9.45 10^−5 M, + chondroitin sulfate C",96 ± 8%
same,Binding of peptide to mAb 735 in competitive ELISA (percentage of binding),"mAb 735; peptide 9.45 10^−5 M, + colominic acid 1 mM",43 ± 3%
same,Binding of peptide to mAb 735 in competitive ELISA (percentage of binding),"mAb 735; peptide 9.45 10^−5 M, no competitor",100 ± 11%
same,Binding of peptide to mAb 735,mAb 735; [2],binds specifically to mAb 735 in a concentration-dependent manner
same,Effect of chondroitin sulfate C on peptide binding to mAb 735,mAb 735; [2],no influence
same,Effect of colominic acid on peptide binding to mAb 735,mAb 735; [2],clear inhibition

# Source: patent US7417025B2, “Use of poly-α2,8-sialic acid mimetic peptides to modulate NCAM functions” (Centre National de la Recherche Scientifique, priority 2002, dated 2008)
